From patent US10913781B2, “Pepducin design and use” (Tufts Medical Center, Inc., priority 2011, dated 2021)

Assays:
PAR2 [1] = biological target: PAR2 (Mus musculus, UniProt P55086); assay: SLIGRL-induced mouse paw edema; type: in vivo; parameters: from tissue; host or cells: living C57BL/6 mice, hindpaw; details: WT C57BL/6 mice; 10 mg/kg s.c.
Description: (A) λ-carrageenan/kaolin or (B) the PAR2 specific agonist SLIGRL was administered by intraplantar injection to the left hindpaw of C57BL/6 wild-type or PAR2^−/− mice that were treated with subcutaneous (s.c.) injection of 10 mg/kg of P2pal-18S or vehicle. Paw area was measured and reported as fold-increase relative to baseline paw area. (C) Histology of representative H&E-stained footpads 7 h after λ-carrageenan/kaolin injection and quantification of the infiltrating inflammatory cells at 40× magnification. […]
To evaluate the in vivo efficacy and specificity of P2pal-18S, the ability of the pepducins of the present invention was tested to protect against inflammatory hindlimb paw edema in wild-type (WT) and PAR2-deficient mouse strains (Damiano B P, et al. (1999) J Pharmacol Exp Ther 288: 671-78.) Acute inflammatory edema was induced by an intraplantar injection of λ-carrageenan and kaolin, irritants which cause a massive leukocytosis and hyperemic response, which leads to localized swelling. PAR2-dependent activity of an embodiment of the present invention, polypeptide P2pal-18S, was directly assessed by quantifying its inhibitory effects against the PAR2-specific agonist SLIGRL when injected into the hind footpad of WT C57BL/6 mice. […]

PAR2 [2] = biological target: PAR2 (Homo sapiens, UniProt P55085); assay: Agonist | (%)^‡; parameters: SW620 colon adenocarcinoma cells that endogenously express PAR2; endogenous in cells; host or cells: SW620 (in A7 the SW620 cells were additionally stably transfected with PAR1)
Sequence of PAR2 (Homo sapiens, UniProt P55085) (P55085 26-397 limits assumed): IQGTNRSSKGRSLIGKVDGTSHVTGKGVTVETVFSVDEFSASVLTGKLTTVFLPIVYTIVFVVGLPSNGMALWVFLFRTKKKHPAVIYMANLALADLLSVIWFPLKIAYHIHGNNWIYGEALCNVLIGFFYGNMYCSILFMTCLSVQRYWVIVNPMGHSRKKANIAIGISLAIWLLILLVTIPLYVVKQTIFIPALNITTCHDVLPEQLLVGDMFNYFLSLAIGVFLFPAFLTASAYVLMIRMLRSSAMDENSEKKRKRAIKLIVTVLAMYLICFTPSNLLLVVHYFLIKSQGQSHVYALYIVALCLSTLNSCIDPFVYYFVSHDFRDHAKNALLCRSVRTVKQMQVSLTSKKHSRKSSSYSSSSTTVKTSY

Sequence of PAR2 (Mus musculus, UniProt P55086) (P55086 26-399): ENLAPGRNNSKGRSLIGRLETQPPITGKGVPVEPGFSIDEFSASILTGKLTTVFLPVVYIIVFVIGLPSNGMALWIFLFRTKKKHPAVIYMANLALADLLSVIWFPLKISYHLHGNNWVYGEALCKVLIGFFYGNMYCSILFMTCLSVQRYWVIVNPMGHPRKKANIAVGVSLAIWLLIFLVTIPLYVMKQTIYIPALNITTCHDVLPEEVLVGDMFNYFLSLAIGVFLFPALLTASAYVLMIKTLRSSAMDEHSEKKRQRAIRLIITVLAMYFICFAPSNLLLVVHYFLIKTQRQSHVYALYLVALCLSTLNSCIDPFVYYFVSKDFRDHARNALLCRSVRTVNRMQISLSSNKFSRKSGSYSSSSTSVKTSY

With `CCCCCCCCCCCCCCCC(=O)N[C@@H](CCCNC(=N)N)C(=O)N[C@@H](CO)C(=O)N[C@@H](CO)C(=O)N[C@@H](C)C(=O)N[C@@H](CCSC)C(=O)N[C@@H](CC(=O)O)C(=O)N[C@@H](CCC(=O)O)C(=O)N[C@@H](CC(N)=O)C(=O)N[C@@H](CO)C(=O)N[C@@H](CCC(=O)O)C(=O)N[C@@H](CCCCN)C(=O)N[C@@H](CCCCN)C(=O)N[C@@H](CCCNC(=N)N)C(=O)N[C@@H](CCCCN)C(=O)N[C@@H](CO)C(=O)N[C@@H](C)C(=O)N[C@H](C(=O)N[C@@H](CCCCN)C(N)=O)[C@@H](C)CC` [P2pal-18S] the “Decrease in SLIGRL-induced edema” value (PAR2 [1]) was 85% and the “Agonist | (%)^‡” value (PAR2 [2]) was 3%.
